Source: article PMC4385830, “Group I Paks as therapeutic targets in NF2-deficient meningioma” (Oncotarget, 2015)

Assays:
KT21 or Ben-Men cells = experiment: Immunoblot of signaling pathways; type: cell-based
Procedure: (§1) Protein concentration was determined, and equal amount of total proteins were separated by SDS-PAGE. […] GAPDH and β-actin were used as loading control.

Ben-Men cells = experiment: Immunoblot of signaling pathways; type: cell-based
Procedure: as §1

BRAF = biological target: T1, BRAF (Homo sapiens, UniProt P15056); experiment: Kinase selectivity, Z'-LYTE; type: biochemical
T1 construct: purchased Invitrogen (Life Technologies) SelectScreen Z'-LYTE
Procedure: (§2) Kinase selectivity was assessed using a commercial service that employs a fluorescence-based, coupled-enzyme assay based on the differential sensitivity of phosphorylated and non-phosphorylated peptides to proteolytic cleavage (Invitrogen, Z'-LYTE®). This assay uses recombinant protein kinases and assay mixed optimized for each particular kinase (http://www.lifetechnologies.com/us/en/home/life-science/drug-discovery/target-and-lead-identification-and-validation /kinasebiology/kinase-activity-assays/z-lyte.html).

MARK3 = biological target: T2, MARK3 (Homo sapiens, UniProt P27448); experiment: Kinase selectivity, Z'-LYTE; type: biochemical
T2 construct: purchased Invitrogen (Life Technologies) SelectScreen Z'-LYTE
Procedure: as §2

ZAP70 = biological target: T3, ZAP70 (Homo sapiens, UniProt P43403); experiment: Kinase selectivity, Z'-LYTE; type: biochemical
T3 construct: purchased Invitrogen (Life Technologies) SelectScreen Z'-LYTE
T3 sequence (P43403 1-619): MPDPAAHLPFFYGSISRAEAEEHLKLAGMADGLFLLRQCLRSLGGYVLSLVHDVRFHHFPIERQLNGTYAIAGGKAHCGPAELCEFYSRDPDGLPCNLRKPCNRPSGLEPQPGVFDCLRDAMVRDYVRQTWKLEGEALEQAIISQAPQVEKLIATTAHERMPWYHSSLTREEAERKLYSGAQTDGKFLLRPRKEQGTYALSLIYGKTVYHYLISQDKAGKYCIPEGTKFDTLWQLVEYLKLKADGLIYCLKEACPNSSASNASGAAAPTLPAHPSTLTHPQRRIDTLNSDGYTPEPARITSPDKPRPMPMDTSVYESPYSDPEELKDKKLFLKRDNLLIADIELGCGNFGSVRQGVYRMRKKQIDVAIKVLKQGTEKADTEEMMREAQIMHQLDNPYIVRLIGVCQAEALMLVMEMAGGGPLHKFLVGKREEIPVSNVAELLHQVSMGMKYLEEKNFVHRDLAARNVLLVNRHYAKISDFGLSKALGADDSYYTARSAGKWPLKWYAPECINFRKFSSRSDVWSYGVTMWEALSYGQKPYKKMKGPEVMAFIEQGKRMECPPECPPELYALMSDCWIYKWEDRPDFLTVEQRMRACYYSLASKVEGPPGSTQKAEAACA
Procedure: as §2

MAP2K2 (MEK2) = biological target: T4, MAP2K2 (MEK2) (Homo sapiens, UniProt P36507); experiment: Kinase selectivity, Z'-LYTE; type: biochemical
T4 construct: purchased Invitrogen (Life Technologies) SelectScreen Z'-LYTE
T4 sequence (P36507 whole entry): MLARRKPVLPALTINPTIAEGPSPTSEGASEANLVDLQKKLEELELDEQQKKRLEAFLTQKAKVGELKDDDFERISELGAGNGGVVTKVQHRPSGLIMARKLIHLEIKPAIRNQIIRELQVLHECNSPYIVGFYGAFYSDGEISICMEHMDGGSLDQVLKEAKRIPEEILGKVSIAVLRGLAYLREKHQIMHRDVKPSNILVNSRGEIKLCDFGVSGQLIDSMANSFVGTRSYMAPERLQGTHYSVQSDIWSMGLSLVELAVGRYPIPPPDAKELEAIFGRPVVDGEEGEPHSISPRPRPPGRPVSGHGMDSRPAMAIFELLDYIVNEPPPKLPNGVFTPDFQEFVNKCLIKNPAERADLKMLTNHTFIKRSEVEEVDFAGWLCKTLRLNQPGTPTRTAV
Procedure: as §2

ACVR1B (ALK4) = biological target: T5, ACVR1B (ALK4) (Homo sapiens, UniProt P36896); experiment: Kinase selectivity, Z'-LYTE; type: biochemical
T5 construct: purchased Invitrogen (Life Technologies) SelectScreen Z'-LYTE
T5 sequence (P36896 24-505): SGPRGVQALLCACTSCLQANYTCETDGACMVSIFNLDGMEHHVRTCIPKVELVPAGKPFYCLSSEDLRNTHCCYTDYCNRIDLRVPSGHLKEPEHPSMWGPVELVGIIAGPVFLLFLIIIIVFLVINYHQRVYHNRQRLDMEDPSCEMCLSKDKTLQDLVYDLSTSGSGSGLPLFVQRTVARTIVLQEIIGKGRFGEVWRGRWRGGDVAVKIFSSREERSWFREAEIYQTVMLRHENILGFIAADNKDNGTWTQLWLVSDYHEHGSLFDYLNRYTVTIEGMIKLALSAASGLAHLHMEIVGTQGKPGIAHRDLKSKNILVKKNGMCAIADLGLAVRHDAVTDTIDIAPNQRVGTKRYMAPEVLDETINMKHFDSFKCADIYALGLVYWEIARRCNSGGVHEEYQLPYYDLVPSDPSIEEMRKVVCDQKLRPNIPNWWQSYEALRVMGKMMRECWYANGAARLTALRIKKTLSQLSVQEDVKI
Procedure: as §2

LYNA = biological target: T6, LYNA (Homo sapiens, UniProt P07948); experiment: Kinase selectivity, Z'-LYTE; type: biochemical
T6 construct: purchased Invitrogen (Life Technologies) SelectScreen Z'-LYTE
Procedure: as §2

FGFR4 = biological target: T7, FGFR4 (Homo sapiens, UniProt P22455); experiment: Kinase selectivity, Z'-LYTE; type: biochemical
T7 construct: purchased Invitrogen (Life Technologies) SelectScreen Z'-LYTE
Procedure: as §2

DYRK1A = biological target: T8, DYRK1A (Homo sapiens, UniProt Q13627); experiment: Kinase selectivity, Z'-LYTE; type: biochemical
T8 construct: purchased Invitrogen (Life Technologies) SelectScreen Z'-LYTE
Procedure: as §2

PAK7 (KIAA 1264) = biological target: T9, PAK7 (KIAA 1264) (Homo sapiens, UniProt Q9P286); experiment: Kinase selectivity, Z'-LYTE; type: biochemical
T9 construct: purchased Invitrogen (Life Technologies) SelectScreen Z'-LYTE
T9 sequence (Q9P286 whole entry): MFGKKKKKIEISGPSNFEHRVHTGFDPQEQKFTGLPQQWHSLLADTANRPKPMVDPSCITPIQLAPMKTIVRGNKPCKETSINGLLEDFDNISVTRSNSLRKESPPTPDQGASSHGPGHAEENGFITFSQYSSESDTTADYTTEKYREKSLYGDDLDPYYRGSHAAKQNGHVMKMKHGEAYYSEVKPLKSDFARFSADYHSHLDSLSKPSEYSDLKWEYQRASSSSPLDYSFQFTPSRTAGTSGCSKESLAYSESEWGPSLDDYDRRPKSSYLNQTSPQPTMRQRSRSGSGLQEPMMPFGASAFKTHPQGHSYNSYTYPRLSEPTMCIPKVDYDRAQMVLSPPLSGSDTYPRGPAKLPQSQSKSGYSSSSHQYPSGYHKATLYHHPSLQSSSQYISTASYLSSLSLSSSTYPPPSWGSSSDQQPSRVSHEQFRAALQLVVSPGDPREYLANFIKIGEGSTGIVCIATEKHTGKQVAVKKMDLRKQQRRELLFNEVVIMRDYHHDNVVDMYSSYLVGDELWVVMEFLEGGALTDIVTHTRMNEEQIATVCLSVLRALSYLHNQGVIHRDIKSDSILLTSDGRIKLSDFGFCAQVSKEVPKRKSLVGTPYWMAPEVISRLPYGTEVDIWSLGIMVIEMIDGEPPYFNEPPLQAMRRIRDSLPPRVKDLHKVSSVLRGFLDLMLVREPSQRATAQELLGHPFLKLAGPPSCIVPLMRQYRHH
Procedure: as §2

PAK2 (PAK65) = biological target: T10, PAK2 (PAK65) (Homo sapiens, UniProt Q13177); experiment: Kinase selectivity, Z'-LYTE; type: biochemical
T10 construct: purchased Invitrogen (Life Technologies) SelectScreen Z'-LYTE
Procedure: as §2

FLT1 (VEGFR1) = biological target: T11, FLT1 (VEGFR1) (Homo sapiens, UniProt P17948); experiment: Kinase selectivity, Z'-LYTE; type: biochemical
T11 construct: purchased Invitrogen (Life Technologies) SelectScreen Z'-LYTE
Procedure: as §2

MAPK3 (ERK1) = biological target: T12, MAPK3 (ERK1) (Homo sapiens, UniProt P27361); experiment: Kinase selectivity, Z'-LYTE; type: biochemical
T12 construct: purchased Invitrogen (Life Technologies) SelectScreen Z'-LYTE
Procedure: as §2

ERBB2 (HER2) = biological target: T13, ERBB2 (HER2) (Homo sapiens, UniProt P04626); experiment: Kinase selectivity, Z'-LYTE; type: biochemical
T13 construct: purchased Invitrogen (Life Technologies) SelectScreen Z'-LYTE
Procedure: as §2

MAPK11 (p38 beta) = biological target: T14, MAPK11 (p38 beta) (Homo sapiens, UniProt Q15759); experiment: Kinase selectivity, Z'-LYTE; type: biochemical
T14 construct: purchased Invitrogen (Life Technologies) SelectScreen Z'-LYTE
Procedure: as §2

CSNK1D (CK1 delta) = biological target: T15, CSNK1D (CK1 delta) (Homo sapiens, UniProt P48730); experiment: Kinase selectivity, Z'-LYTE; type: biochemical
T15 construct: purchased Invitrogen (Life Technologies) SelectScreen Z'-LYTE
Procedure: as §2

Pak4 = biological target: T16, Pak4 (Homo sapiens, UniProt O96013); experiment: Kinase selectivity, Z'-LYTE; type: biochemical
T16 construct: purchased Invitrogen (Life Technologies) SelectScreen Z'-LYTE
Procedure: as §2

PDGFRB (PDGFR beta) = biological target: T17, PDGFRB (PDGFR beta) (Homo sapiens, UniProt P09619); experiment: Kinase selectivity, Z'-LYTE; type: biochemical
T17 construct: purchased Invitrogen (Life Technologies) SelectScreen Z'-LYTE
T17 sequence (P09619 33-1106): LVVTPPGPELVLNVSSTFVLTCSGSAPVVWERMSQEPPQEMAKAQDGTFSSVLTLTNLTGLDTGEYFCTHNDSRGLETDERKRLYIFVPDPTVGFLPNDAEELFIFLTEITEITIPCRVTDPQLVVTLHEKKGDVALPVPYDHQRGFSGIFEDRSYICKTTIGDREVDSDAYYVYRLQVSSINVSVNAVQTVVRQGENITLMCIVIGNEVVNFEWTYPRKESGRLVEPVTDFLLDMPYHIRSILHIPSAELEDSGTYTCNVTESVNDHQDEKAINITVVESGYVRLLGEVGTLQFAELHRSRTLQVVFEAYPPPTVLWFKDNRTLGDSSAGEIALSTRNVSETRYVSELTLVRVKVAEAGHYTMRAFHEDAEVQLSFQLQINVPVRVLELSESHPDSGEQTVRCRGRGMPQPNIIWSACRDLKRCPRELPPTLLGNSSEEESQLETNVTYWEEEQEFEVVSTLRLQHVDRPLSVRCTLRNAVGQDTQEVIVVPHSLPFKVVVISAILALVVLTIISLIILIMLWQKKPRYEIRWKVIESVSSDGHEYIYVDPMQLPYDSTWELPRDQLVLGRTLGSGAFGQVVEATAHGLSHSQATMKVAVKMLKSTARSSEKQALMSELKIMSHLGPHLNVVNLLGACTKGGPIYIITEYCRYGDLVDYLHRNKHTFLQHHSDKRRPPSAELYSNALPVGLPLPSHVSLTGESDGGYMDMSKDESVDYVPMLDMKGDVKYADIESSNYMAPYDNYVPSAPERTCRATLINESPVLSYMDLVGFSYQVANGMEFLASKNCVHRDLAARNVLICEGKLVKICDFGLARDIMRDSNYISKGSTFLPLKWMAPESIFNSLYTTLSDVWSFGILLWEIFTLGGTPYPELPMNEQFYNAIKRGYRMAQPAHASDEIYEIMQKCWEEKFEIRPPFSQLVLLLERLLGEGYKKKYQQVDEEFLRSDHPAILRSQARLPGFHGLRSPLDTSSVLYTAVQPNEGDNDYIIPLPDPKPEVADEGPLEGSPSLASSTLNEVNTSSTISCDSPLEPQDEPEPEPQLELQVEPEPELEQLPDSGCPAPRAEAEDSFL
Procedure: as §2

FGFR3 = biological target: T18, FGFR3 (Homo sapiens, UniProt P22607); experiment: Kinase selectivity, Z'-LYTE; type: biochemical
T18 construct: purchased Invitrogen (Life Technologies) SelectScreen Z'-LYTE
Procedure: as §2

CHEK2 (CHK2) = biological target: T19, CHEK2 (CHK2) (Homo sapiens, UniProt O96017); experiment: Kinase selectivity, Z'-LYTE; type: biochemical
T19 construct: purchased Invitrogen (Life Technologies) SelectScreen Z'-LYTE
T19 sequence (O96017 whole entry): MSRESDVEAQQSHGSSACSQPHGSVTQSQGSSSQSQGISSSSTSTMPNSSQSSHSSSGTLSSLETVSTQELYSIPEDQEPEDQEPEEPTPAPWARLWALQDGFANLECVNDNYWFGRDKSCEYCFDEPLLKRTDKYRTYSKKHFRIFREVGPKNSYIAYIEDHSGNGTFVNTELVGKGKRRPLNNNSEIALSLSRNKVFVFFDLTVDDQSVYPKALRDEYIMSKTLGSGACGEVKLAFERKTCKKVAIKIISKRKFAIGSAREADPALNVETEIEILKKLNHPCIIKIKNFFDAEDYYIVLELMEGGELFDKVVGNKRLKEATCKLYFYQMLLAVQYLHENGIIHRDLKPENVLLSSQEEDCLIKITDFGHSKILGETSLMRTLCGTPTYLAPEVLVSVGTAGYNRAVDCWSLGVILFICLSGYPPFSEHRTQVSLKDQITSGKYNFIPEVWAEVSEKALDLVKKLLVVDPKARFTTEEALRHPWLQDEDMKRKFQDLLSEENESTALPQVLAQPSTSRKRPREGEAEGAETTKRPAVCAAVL
Procedure: as §2

INSR = biological target: T20, INSR (Homo sapiens, UniProt P06213); experiment: Kinase selectivity, Z'-LYTE; type: biochemical
T20 construct: purchased Invitrogen (Life Technologies) SelectScreen Z'-LYTE
T20 sequence (P06213 28-1382): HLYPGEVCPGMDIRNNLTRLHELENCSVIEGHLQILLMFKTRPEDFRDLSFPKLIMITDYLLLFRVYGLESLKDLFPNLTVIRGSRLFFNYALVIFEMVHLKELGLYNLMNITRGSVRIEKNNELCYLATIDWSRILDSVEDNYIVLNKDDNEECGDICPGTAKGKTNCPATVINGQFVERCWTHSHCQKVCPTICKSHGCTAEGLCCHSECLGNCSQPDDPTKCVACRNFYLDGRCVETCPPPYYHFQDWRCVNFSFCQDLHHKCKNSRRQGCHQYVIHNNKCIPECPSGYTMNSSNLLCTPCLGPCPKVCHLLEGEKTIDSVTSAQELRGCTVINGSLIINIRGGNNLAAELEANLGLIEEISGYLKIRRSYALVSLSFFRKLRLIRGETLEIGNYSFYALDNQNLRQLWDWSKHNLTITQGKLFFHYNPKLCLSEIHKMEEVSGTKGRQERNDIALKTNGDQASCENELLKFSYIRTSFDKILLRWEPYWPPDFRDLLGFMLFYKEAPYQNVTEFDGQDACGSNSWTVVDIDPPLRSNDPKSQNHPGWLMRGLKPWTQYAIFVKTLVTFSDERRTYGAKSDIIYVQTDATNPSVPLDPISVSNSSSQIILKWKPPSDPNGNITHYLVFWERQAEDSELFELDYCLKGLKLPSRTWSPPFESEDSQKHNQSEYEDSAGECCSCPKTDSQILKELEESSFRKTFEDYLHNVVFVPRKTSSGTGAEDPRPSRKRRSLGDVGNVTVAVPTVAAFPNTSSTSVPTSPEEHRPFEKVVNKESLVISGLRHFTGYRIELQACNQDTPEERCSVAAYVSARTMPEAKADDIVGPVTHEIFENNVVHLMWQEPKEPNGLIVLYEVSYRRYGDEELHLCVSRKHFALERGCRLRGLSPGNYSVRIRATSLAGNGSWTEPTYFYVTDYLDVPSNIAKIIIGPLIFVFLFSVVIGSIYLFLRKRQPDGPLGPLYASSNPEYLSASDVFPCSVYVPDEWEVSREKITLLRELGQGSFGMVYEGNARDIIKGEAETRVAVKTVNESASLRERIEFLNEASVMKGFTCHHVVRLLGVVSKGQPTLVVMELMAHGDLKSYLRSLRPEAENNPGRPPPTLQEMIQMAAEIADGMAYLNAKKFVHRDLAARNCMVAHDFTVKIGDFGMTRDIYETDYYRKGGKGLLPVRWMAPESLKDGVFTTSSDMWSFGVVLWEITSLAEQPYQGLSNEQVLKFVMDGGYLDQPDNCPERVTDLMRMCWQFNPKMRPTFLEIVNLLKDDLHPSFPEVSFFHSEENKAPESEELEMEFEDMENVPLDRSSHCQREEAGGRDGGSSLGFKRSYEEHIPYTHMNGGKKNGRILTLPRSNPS
Procedure: as §2

MAP2K1 (MEK1) = biological target: T21, MAP2K1 (MEK1) (Homo sapiens, UniProt Q02750); experiment: Kinase selectivity, Z'-LYTE; type: biochemical
T21 construct: purchased Invitrogen (Life Technologies) SelectScreen Z'-LYTE
Procedure: as §2

PRKCB1 (PKC beta I) = biological target: T22, PRKCB1 (PKC beta I) (Homo sapiens, UniProt P05771); experiment: Kinase selectivity, Z'-LYTE; type: biochemical
T22 construct: purchased Invitrogen (Life Technologies) SelectScreen Z'-LYTE
T22 sequence (P05771 whole entry): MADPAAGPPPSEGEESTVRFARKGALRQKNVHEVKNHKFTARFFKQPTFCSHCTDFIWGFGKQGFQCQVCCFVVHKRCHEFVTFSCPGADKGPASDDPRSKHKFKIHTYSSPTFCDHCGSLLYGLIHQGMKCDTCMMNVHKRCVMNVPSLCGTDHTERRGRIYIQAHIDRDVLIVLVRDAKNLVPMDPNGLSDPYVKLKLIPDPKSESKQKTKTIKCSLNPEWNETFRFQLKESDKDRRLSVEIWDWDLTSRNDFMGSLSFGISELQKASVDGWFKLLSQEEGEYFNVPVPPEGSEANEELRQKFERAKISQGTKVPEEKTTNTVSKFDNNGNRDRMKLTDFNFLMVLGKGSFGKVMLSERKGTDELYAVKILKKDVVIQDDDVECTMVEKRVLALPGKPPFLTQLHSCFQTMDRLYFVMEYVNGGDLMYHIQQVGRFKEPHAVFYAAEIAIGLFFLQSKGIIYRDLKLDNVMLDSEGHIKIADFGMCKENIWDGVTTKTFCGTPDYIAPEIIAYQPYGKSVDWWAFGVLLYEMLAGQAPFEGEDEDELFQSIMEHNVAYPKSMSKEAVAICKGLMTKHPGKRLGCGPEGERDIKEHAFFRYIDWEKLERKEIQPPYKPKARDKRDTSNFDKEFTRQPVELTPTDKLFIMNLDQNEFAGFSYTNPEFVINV
Procedure: as §2

KIT = biological target: T23, KIT (Homo sapiens, UniProt P10721); experiment: Kinase selectivity, Z'-LYTE; type: biochemical
T23 construct: purchased Invitrogen (Life Technologies) SelectScreen Z'-LYTE
Procedure: as §2

[1] = inhibitors at IC50 concentration

Row | Structure (SMILES) | phosphorylation of Pak and Mek1 (at Ser298) (KT21 or Ben-Men cells; [1]) | basal level (expression) of β-catenin (Ben-Men cells) | % inhibition of activity (BRAF) [%] | % inhibition of activity (MARK3) [%] | % inhibition of activity (ZAP70) [%] | % inhibition of activity (MAP2K2 (MEK2)) [%] | % inhibition of activity (ACVR1B (ALK4)) [%] | % inhibition of activity (LYNA) [%] | % inhibition of activity (FGFR4) [%] | % inhibition of activity (DYRK1A) [%] | % inhibition of activity (PAK7 (KIAA 1264)) [%] | % inhibition of activity (PAK2 (PAK65)) [%] | % inhibition of activity (FLT1 (VEGFR1)) [%] | % inhibition of activity (MAPK3 (ERK1)) [%] | % inhibition of activity (ERBB2 (HER2)) [%] | % inhibition of activity (MAPK11 (p38 beta)) [%] | % inhibition of activity (CSNK1D (CK1 delta)) [%] | % inhibition of activity (Pak4) [%] | % inhibition of activity (PDGFRB (PDGFR beta)) [%] | % inhibition of activity (FGFR3) [%] | other results
1 | CCn1c(=O)c(-c2ccc(-c3noc(C)n3)cc2Cl)cc2cnc(Nc3ccc(C4CCN(C)CC4)cc3)nc21 [Frax716] | dramatically inhibited | did not impact | 72 | 16 | 8 | 79 | −9 | 88 | 20 | 3 | 17 | 100 | 37 | 8 | 8 | 2 | 6 | 7 | 82 | 35 | phosphorylation of β-catenin (Ben-Men cells): diminished; % inhibition of activity (CHEK2 (CHK2)): 17%; % inhibition of activity (INSR): 14%; % inhibition of activity (MAP2K1 (MEK1)): 48%; % inhibition of activity (PRKCB1 (PKC beta I)): 9%; % inhibition of activity (KIT): 77%
2 | CCn1c(=O)c(-c2ccc(-c3cncc(C)n3)cc2Cl)cc2cnc(NCCC3CCN(C)CC3)nc21 [Frax1036] | nearly abolished | induction | 7 | 24 | 3 | 15 | 0 | 39 | 9 | 5 | 9 | 98 | 14 | 4 | 2 | 6 | 11 | 6 | 83 | 0 | % inhibition of activity (CHEK2 (CHK2)): 7%; % inhibition of activity (INSR): 0%; % inhibition of activity (MAP2K1 (MEK1)): 27%; % inhibition of activity (PRKCB1 (PKC beta I)): 18%; % inhibition of activity (KIT): 32%
3 | Cc1nc(Nc2[nH]nc3c2CN(C(=O)N[C@H](CN(C)C)c2ccccc2)C3(C)C)c2sccc2n1 [PF3758309, reference compound] | dramatically inhibited | induction | 52 | 100 | 10 | 20 | 1 | 76 | 11 | 6 | 99 | 100 | 5 | 18 | 4 | 8 | 3 | 99 | 14 | 31 | activity of Akt (KT21 or Ben-Men cells; either cell type): did not influence; Erk activity (KT21 or Ben-Men cells; [1]): decrease; % inhibition of activity (CHEK2 (CHK2)): 99%; % inhibition of activity (INSR): 7%; % inhibition of activity (MAP2K1 (MEK1)): 39%; % inhibition of activity (PRKCB1 (PKC beta I)): 58%; % inhibition of activity (KIT): 7%
